Drawing on US8877707B2, “Inhibitors of HCV NS5A” (Presidio Pharmaceuticals, Inc., priority 2010, dated 2014), this text covers EC50 for 16 compounds.

pEC50: −log10 of the molar value. A value given as a limit tells only on which side of the number the result lay.

The assay relates to HCV genotype 1b replicon in Huh 7 cells. The assay can be described thus: HCV replicon assay (1b_Huh-Luc/Neo-ET cell line, luciferase readout). The format is cell-based. The note with it: Hepatitis C virus; Table 1; genotype 1b replicon, Huh 7 cells, 72 h, luciferase; read-out: Inhibition of HCV genotype 1b. Put shortly: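 Huh 7 cells carrying a bicistronic genotype 1b luciferase replicon were treated with compound in triplicate the day after plating and incubated 72 h. Luciferase activity expressed as % of untreated control; EC50 from a four-parameter logistic fit, repeated several times.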
For orientation: A replicon is a self-replicating genome or part of one, used to study replication in cells.
Consider `COC(=O)N[C@@H](C(=O)N1CCCC[C@H]1c1ncc(-c2ccc(-c3nc4ccc(-c5cnc([C@@H]6CCCCN6C(=O)[C@H](NC(=O)OC)c6ccccc6)[nH]5)cc4s3)cc2)[nH]1)c1ccccc1` [compound 248], for which the pEC50 is above 9.00. Then `COC(=O)N[C@H](C(=O)N1CCC[C@H]1c1ncc(-c2ccc(-c3nc4ccc(-c5cnc([C@@H]6CCCN6C(=O)[C@H](NC(=O)OC)c6ccccc6)[nH]5)cc4o3)cc2)[nH]1)C(C)C` [compound 249], with above 9.00. Then `CC(C)(C)OC(=O)N1CCCC1c1ncc(-c2ccc(-c3nc4cc(-c5cnc([C@@H]6CCCN6C(=O)OCc6ccccc6)[nH]5)ccc4s3)cc2)[nH]1` (stereo partly shown) [compound 250], with 6.00 to 8.00. Then `CNC(=O)N[C@@H](C(=O)N1CCC[C@H]1c1ncc(-c2ccc3nc(-c4ccc(-c5cnc([C@@H]6CCCN6C(=O)[C@@H](NC(=O)OC)C(C)C)[nH]5)cc4)oc3c2)[nH]1)c1ccccc1` [compound 251], with above 9.00; and `CCNC(=O)N[C@@H](C(=O)N1CCC[C@H]1c1ncc(-c2ccc3nc(-c4ccc(-c5cnc([C@@H]6CCCN6C(=O)[C@@H](NC(=O)OC)C(C)C)[nH]5)cc4)oc3c2)[nH]1)c1ccccc1` [compound 252], with above 9.00; and `COC(=O)N[C@H](C(=O)N1CCC[C@H]1c1ncc(-c2ccc(-c3nc4ccc(-c5cnc([C@@H]6CCCN6C(=O)[C@@H](NC(=O)OC)[C@@H](C)OC)[nH]5)cc4o3)cc2)[nH]1)C(C)C` [compound 253], with above 9.00.

In the case of `COC(=O)N[C@H](C(=O)N1CCC[C@H]1c1ncc(-c2ccc3nc(-c4ccc(-c5cnc([C@@H]6CCCN6C(=O)[C@H](NC(=O)OC(C)(C)C)c6ccccc6)[nH]5)cc4)oc3c2)[nH]1)C(C)C` [compound 254], the pEC50 is above 9.00.

Consider `COC(=O)N[C@H](C(=O)N1CCC[C@H]1c1ncc(-c2ccc3nc(-c4ccc(-c5cnc([C@@H]6CCCN6C(=O)[C@H](NC(=O)OC)c6ccccc6)[nH]5)cc4)oc3c2)[nH]1)C(C)C` [compound 255], for which the pEC50 is above 9.00. Then `CNC(=O)N[C@@H](C(=O)N1CCC[C@H]1c1ncc(-c2ccc(-c3nc4ccc(-c5cnc([C@@H]6CCCN6C(=O)[C@@H](NC(=O)OC)C(C)C)[nH]5)cc4o3)cc2)[nH]1)c1ccccc1` [compound 256], with above 9.00; and `CCNC(=O)N[C@@H](C(=O)N1CCC[C@H]1c1ncc(-c2ccc(-c3nc4ccc(-c5cnc([C@@H]6CCCN6C(=O)[C@@H](NC(=O)OC)C(C)C)[nH]5)cc4o3)cc2)[nH]1)c1ccccc1` [compound 257], with above 9.00; and `COC(=O)N[C@H](C(=O)N1CCC[C@H]1c1ncc(-c2ccc(-c3ccc4nc(-c5cnc([C@@H]6CCCN6C(=O)[C@@H](NC(=O)OC)C(C)C)[nH]5)sc4c3)cc2)[nH]1)C(C)C` [compound 258], with above 9.00. In the case of `COC(=O)N[C@H](C(=O)N1CCC[C@H]1c1ncc(-c2ccc3oc(-c4ccc(-c5cnc([C@@H]6CCCN6C(=O)[C@@H](NC(=O)OC)C6CCOCC6)[nH]5)cc4)nc3c2)[nH]1)C(C)C` [compound 259] it was above 9.00. Consider `COC(=O)N[C@H](C(=O)N1CCC[C@H]1c1ncc(-c2ccc3oc(-c4ccc(-c5cnc([C@@H]6CCCN6C(=O)[C@H](NC(=O)OC)c6ccccc6)[nH]5)cc4)nc3c2)[nH]1)C(C)C` [compound 260], for which the pEC50 is above 9.00. In the case of `COC(=O)N[C@H](C(=O)N1CCC[C@H]1c1ncc(-c2ccc3ccc(C45CCC(c6cnc([C@@H]7CCCN7C(=O)[C@@H](NC(=O)OC)C(C)C)[nH]6)(CC4)CC5)cc3c2)[nH]1)C(C)C` [compound 261] it was 8.00 to 9.00. In the case of `COC(=O)N[C@H](C(=O)N1CCC[C@H]1c1nc(-c2ccc3nc(C45CCC(c6cnc([C@@H]7CCCN7C(=O)[C@@H](NC(=O)OC)C(C)C)[nH]6)(CC4)CC5)ccc3c2)c[nH]1)C(C)C` [compound 262] it was above 9.00; in that of `COC(=O)N[C@@H](C(=O)N1CCC[C@H]1c1nc(-c2ccc3nc(C45CCC(c6cnc([C@@H]7CCCN7C(=O)[C@H](NC(=O)OC)c7ccccc7)[nH]6)(CC4)CC5)ccc3c2)c[nH]1)c1ccccc1` [compound 263], above 9.00.
